Where “and” joins values, the source holds several entries; their conditions need not be identical. Equal values may be shown once. Read-outs that look alike come from different tables or passages of the source.
Assays:
MAO-B [1] = biological target: T1, MAO-B (Homo sapiens, UniProt P27338); experiment: MAO-B inhibition, kynuramine method; type: biochemical
T1 sequence (P27338 1-520): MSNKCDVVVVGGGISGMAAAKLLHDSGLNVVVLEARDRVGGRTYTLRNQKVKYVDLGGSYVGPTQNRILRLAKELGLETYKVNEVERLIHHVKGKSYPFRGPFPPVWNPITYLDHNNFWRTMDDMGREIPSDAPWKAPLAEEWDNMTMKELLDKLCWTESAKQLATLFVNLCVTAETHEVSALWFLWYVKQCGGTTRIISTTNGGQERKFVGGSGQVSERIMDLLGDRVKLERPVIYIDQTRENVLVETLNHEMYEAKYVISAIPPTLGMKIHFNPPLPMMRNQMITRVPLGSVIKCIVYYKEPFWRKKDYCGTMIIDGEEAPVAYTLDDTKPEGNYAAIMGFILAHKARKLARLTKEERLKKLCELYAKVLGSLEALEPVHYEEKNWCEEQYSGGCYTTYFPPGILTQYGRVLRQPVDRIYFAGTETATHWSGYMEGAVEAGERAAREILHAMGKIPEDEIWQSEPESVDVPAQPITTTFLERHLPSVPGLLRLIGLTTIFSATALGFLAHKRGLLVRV

[2] = Oxygen radical absorbance capacity assay with fluorescein (ORAC-FL); conditions: Trolox as standard
Method: Oxygen radical absorbance capacity assay which used fluorescein (ORAC-FL) was performed to measure the antioxidant activities of 2-(4-(benzyloxy)-5-(hydroxyl) phenyl) benzothiazole derivatives. […] It reflected that introduction of alkyl substituents on benzyloxy ring was more beneficial for the improvement of in vitro antioxidant activity. However, the position and number of substituents seem to have little influence on the antioxidative activities.
Test compounds solution (20 µL, 10 µM) and fluorescein solution (120 µL, 250 nM) were added to a black 96-wells plate in order. The mixture was incubated for 15 min at 37 °C. Then, AAPH solution (60 µL, 40 mM) was added through an automatic sampler. The fluorescence was recorded with excitation and emission wavelengths at 485 and 535 nm on the multifunctional enzyme marker (Thermo Scientific), and the area under the curve (AUC) was calculated automatically. Trolox was used as a reference, and the antioxidant activities of the compounds were expressed as Trolox equivalent. The test compound solution was replaced with PBS (20 µL) in blank well. The antioxidant activities of the test compounds were calculated by the formula: [(AUCsample − AUCblank)/(AUCtrolox − AUCblank)] × [(Trolox concentration/test sample concentration)].

MAO-A = biological target: T2, MAO-A (Homo sapiens, UniProt P21397); experiment: MAO-A inhibition, kynuramine method; type: biochemical; conditions: for inhibition at 10 µM: read-out: %Inhibition MAO-A
T2 sequence (P21397 1-527): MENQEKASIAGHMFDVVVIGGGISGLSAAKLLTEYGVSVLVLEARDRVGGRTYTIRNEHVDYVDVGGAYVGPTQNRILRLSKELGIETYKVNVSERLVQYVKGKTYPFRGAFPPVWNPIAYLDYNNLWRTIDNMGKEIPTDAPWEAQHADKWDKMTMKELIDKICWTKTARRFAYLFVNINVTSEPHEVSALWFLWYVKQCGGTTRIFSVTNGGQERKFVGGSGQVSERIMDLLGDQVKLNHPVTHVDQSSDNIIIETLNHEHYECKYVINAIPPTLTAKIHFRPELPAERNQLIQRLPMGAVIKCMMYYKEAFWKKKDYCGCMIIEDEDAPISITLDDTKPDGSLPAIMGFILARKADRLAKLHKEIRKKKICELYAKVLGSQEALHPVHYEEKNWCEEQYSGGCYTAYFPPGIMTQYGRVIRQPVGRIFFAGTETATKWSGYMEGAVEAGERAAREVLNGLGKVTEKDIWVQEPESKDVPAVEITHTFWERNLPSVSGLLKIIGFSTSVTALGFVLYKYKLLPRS

[3] = PAMPA-BBB literature values ref 1 (Di et al., Eur. J. Med. Chem. 2003, 38, 223); cited from earlier work
MAO-B [4] = biological target: T1, MAO-B; experiment: Reversibility study of MAO-B inhibition by dialysis method; type: biochemical; conditions: for MAO-B inhibitory mode: classified by MAO-B catalytic activity in dialysis group; for MAO-B catalytic activity, undialysis group / MAO-B catalytic activity, dialysis group: test compound 4 × IC50; for MAO-B catalytic activity, undialysis group: 4 °C for 24 h without dialysis; for MAO-B catalytic activity, dialysis group: dialysis 24 h
Method: The mixture was incubated at 37 °C for 30 min and transferred to dialysis bag (MWCO: 10 000, flattening width: 24 mm, length: 8–10 cm). Then, this dialysis bag was placed in 200 ml PBS for 24 h, and the outer PBS was replaced with fresh at 3 and 7 h, respectively. As for the undialysis group, the mixture was placed at 4 °C for 24 h. After dialysis, the mixtures (40 µL) in the dialysis bag were taken out to measure the catalytic activity, and the test method was similar with the inhibition experiment of MAOs. […] The test compound solution was replaced with PBS buffer at the same volume in the blank group.

[5] = at the concentration of 10.0 μM, n.a. = no active, percent inhibition <5.0%

Structure (SMILES) | IC50 (MAO-B [1]) [nM] | ORAC [2] | inhibition at 10 µM (MAO-A; [5]) [%] | further results
Oc1cc(OCc2ccccc2)ccc1-c1nc2ccccc2s1 [3a, 2-(Benzo[d]thiazol-2-yl)-5-(benzyloxy)phenol] | 3930 ± 259 | 2.13 ± 0.05 Trolox equivalents | 24.83 ± 0.11 | –
Oc1cc(OCc2ccccc2F)ccc1-c1nc2ccccc2s1 [3b, 2-(Benzo[d]thiazol-2-yl)-5-((2-fluorobenzyl)oxy)phenol] | 1670 ± 146 | 2.32 ± 0.02 Trolox equivalents | 14.25 ± 0.07 | –
Oc1cc(OCc2ccccc2Cl)ccc1-c1nc2ccccc2s1 [3c, 2-(Benzo[d]thiazol-2-yl)-5-((2-chlorobenzyl)oxy)phenol] | 2900 ± 31 | 2.26 ± 0.09 Trolox equivalents | 19.58 ± 0.06 | –
Oc1cc(OCc2cccc(F)c2)ccc1-c1nc2ccccc2s1 [3d, 2-(Benzo[d]thiazol-2-yl)-5-((3-fluorobenzyl)oxy)phenol] | 526 ± 24 | 2.24 ± 0.10 Trolox equivalents | 18.41 ± 0.05 | –
Oc1cc(OCc2cccc(Cl)c2)ccc1-c1nc2ccccc2s1 [3e, 2-(Benzo[d]thiazol-2-yl)-5-((3-chlorobenzyl)oxy)phenol] | 1050 ± 83 | 2.31 ± 0.07 Trolox equivalents | 31.6 ± 0.28 | –
Oc1cc(OCc2cccc(C(F)(F)F)c2)ccc1-c1nc2ccccc2s1 [3f, 2-(Benzo[d]thiazol-2-yl)-5-((3-(trifluoromethyl)benzyl)oxy)phenol] | 951 ± 62 | 2.25 ± 0.07 Trolox equivalents | – | –
COc1cccc(COc2ccc(-c3nc4ccccc4s3)c(O)c2)c1 [3g, 2-(Benzo[d]thiazol-2-yl)-5-((3-methoxybenzyl)oxy)phenol] | 1520 ± 97 | 2.30 ± 0.04 Trolox equivalents | – | –
Oc1cc(OCc2ccc(Cl)cc2)ccc1-c1nc2ccccc2s1 [3i, 2-(Benzo[d]thiazol-2-yl)-5-((4-chlorobenzyl)oxy)phenol] | 314 ± 10 | 2.23 ± 0.06 Trolox equivalents | 47.14 ± 0.21 | –
Cc1ccc(COc2ccc(-c3nc4ccccc4s3)c(O)c2)cc1 [3j, 2-(Benzo[d]thiazol-2-yl)-5-((4-methylbenzyl)oxy)phenol] | 1940 ± 78 | 2.39 ± 0.14 Trolox equivalents | 34.32 ± 0.09 | –
CC(C)(C)c1ccc(COc2ccc(-c3nc4ccccc4s3)c(O)c2)cc1 [3k, 2-(Benzo[d]thiazol-2-yl)-5-((4-(tert-butyl)benzyl)oxy)phenol] | 3407 ± 32 | 2.48 Trolox equivalents and 2.48 ± 0.13 Trolox equivalents | – | –
O=[N+]([O-])c1ccc(COc2ccc(-c3nc4ccccc4s3)c(O)c2)cc1 [3l, 2-(Benzo[d]thiazol-2-yl)-5-((4-nitrobenzyl)oxy)phenol] | 784 ± 28 | 2.14 ± 0.06 Trolox equivalents | 25.16 ± 0.13 | –
Oc1cc(OCc2ccc(F)c(F)c2)ccc1-c1nc2ccccc2s1 [3m, 2-(Benzo[d]thiazol-2-yl)-5-((3,4-difluorobenzyl)oxy)phenol] | 423 ± 9 | 2.24 ± 0.11 Trolox equivalents | 47.52 ± 0.36 | –
Oc1cc(OCc2ccc(Cl)c(Cl)c2)ccc1-c1nc2ccccc2s1 [3n, 2-(Benzo[d]thiazol-2-yl)-5-((3,4-dichlorobenzyl)oxy)phenol] | 970 ± 11 | 2.21 ± 0.09 Trolox equivalents | – | IC50 (MAO-A): 9800 ± 190 nM
Oc1cc(OCc2ccc(F)c(Cl)c2)ccc1-c1nc2ccccc2s1 [3o, 2-(Benzo[d]thiazol-2-yl)-5-((3-chloro-4-fluorobenzyl)oxy)phenol] | 521 ± 7 | 2.27 ± 0.05 Trolox equivalents | 49.9 ± 0.53 | –
O=C1Nc2ccc(Cl)cc2C(c2ccccc2)=NC1O (centres unmarked) [Oxazepam] | – | – | – | Pe (Bibl) [3]: 10 ×10⁻⁶ cm/s
CN1C(C(=O)Nc2ccccn2)=C(O)c2ccccc2S1(=O)=O [Piroxicam] | – | – | – | Pe (Bibl) [3]: 2.5 ×10⁻⁶ cm/s
C#CCN[C@@H]1CCc2ccccc21 [Rasagiline] | – | – | – | MAO-B inhibitory mode (MAO-B [4]): irreversible (irreversible inhibition: MAO-B catalytic activity ≤ 20%); MAO-B catalytic activity, undialysis group (MAO-B [4]): 2.7%; MAO-B catalytic activity, dialysis group (MAO-B [4]): 4.2%
C[C@H](NCc1ccc(OCc2cccc(F)c2)cc1)C(N)=O [Safinamide] | – | 1.12 ± 0.01 Trolox equivalents | – | MAO-B inhibitory mode (MAO-B [4]): reversible (reversible inhibition: MAO-B catalytic activity ≥ 80%); MAO-B catalytic activity, undialysis group (MAO-B [4]): 39.3%; MAO-B catalytic activity, dialysis group (MAO-B [4]): 93.0%; inhibition at 10 µM (MAO-A): 24.9 ± 0.04%
Cn1c(=O)c2[nH]cnc2n(C)c1=O [Theophylline] | – | – | – | Pe (Bibl) [3]: 0.12 ×10⁻⁶ cm/s
